Results on two compounds are retold here after US20180292376A1, “DIFFUSION CELL TESTING METHODS CONTAINING BIPHASIC RECEPTOR FLUIDS” (BUFFERAD Illinois Inc. d/b/a Zyleris PharmaTech, Inc., priority 2017, published 2018).

Data set [1] is described as follows: In vitro release testing (IVRT), static vertical diffusion cell, synthetic membrane, UV-VIS analysis. The class given is physicochemical. As to conditions: petrolatum ointment with 0.5% loteprednol etabonate and 0.3% tobramycin sulfate; 1-octanol:1-hexanol:water 25:25:50 v:v:v. The method, then:
In Vitro Release Testing Method.
Release of pharmaceutically active compounds from semi-solid dosage forms was evaluated in an in vitro model of static vertical diffusion cell using a synthetic membrane model. […] The samples were analyzed using a UV-VIS spectrometer. […]
Test time points: 0, 2, 4, 6, 8, and 10 hours. Each test was conducted in four replicates (N=4). Square root of test time points: 0, 1.41, 2.00, 2.45, 2.83, and 3.16.
Membrane: Polypropylene (pore size: 0.45 micron).
Static vertical diffusion cell parameters: Area of the membrane diffusion area: 0.95 square centimeters.
Dosing level: infinite dose at about 3.0 milliliter of the semi-solid dosage form.
Static vertical diffusion cell consists of a donor and receptor compartment separated by a synthetic membrane. The dosing compartment was for the dosed semi-solid dosage form. […] Before dosing, the diffusion cell was pre-incubated at 32° C. for about 20 to 45 minutes. The t=0 samples were taken after the incubation period prior to dosing.
During the experiment, the receptor fluid was in intimate contact with the membrane through a mixing mechanism, such as, e.g., magnetic stirring bar, or orbit shaker, and maintained at 32° C. using a heating mechanism, such as, e.g., dry heat block, or circulating water bath. At each time point, entire content of the receptor fluid was collected and replaced with a fresh batch pre-incubated at 32° C.
An ointment dosage form was prepared as an example of the semi-solid dosage form. Petrolatum was heated to about 50 to 70° C. while mixing. Xylene Cyanol was added to the heated petrolatum while heating and mixing. The mixture was mixed until uniform. Then, the mixture was slowly cooled to room temperature while mixing to yield the ointment formulation.

For data set [2] the following is noted: general statement, no test described; cited from earlier work.

In the case of `CCOC(=O)O[C@]1(C(=O)OCCl)CC[C@H]2[C@@H]3CCC4=CC(=O)C=C[C@]4(C)[C@H]3[C@@H](O)C[C@@]21C` [loteprednol etabonate, Loteprednol etabonate], the “phase of the biphasic receptor fluid in which the released compound is solubilized” value in data set [1] is reported as “mostly solubilized in the organic 1-octanol/1-hexanol phase”.

As for Tobramycin sulfate, the solubility in water entry in data set [2] is “freely soluble”.
